Experimental findings from article PMC9281569, “Two HCN4 Channels Play Functional Roles in the Zebrafish Heart” (Frontiers in Physiology, 2022) are described below.

Values joined by “and” are separate entries in the source; they are usually repeats but may differ in a detail not shown here. Equal values may be shown once. Where a name gives a salt, the structure may show the parent alone. Read-outs that look alike come from different tables or passages of the source.

The target of one series is T1, HsHCN4 (Homo sapiens, UniProt Q9Y3Q4).
T1 construct: host or cells: Xenopus laevis oocytes injected with cRNA (pGEMHE vector)
T1 sequence (Q9Y3Q4 1-1203): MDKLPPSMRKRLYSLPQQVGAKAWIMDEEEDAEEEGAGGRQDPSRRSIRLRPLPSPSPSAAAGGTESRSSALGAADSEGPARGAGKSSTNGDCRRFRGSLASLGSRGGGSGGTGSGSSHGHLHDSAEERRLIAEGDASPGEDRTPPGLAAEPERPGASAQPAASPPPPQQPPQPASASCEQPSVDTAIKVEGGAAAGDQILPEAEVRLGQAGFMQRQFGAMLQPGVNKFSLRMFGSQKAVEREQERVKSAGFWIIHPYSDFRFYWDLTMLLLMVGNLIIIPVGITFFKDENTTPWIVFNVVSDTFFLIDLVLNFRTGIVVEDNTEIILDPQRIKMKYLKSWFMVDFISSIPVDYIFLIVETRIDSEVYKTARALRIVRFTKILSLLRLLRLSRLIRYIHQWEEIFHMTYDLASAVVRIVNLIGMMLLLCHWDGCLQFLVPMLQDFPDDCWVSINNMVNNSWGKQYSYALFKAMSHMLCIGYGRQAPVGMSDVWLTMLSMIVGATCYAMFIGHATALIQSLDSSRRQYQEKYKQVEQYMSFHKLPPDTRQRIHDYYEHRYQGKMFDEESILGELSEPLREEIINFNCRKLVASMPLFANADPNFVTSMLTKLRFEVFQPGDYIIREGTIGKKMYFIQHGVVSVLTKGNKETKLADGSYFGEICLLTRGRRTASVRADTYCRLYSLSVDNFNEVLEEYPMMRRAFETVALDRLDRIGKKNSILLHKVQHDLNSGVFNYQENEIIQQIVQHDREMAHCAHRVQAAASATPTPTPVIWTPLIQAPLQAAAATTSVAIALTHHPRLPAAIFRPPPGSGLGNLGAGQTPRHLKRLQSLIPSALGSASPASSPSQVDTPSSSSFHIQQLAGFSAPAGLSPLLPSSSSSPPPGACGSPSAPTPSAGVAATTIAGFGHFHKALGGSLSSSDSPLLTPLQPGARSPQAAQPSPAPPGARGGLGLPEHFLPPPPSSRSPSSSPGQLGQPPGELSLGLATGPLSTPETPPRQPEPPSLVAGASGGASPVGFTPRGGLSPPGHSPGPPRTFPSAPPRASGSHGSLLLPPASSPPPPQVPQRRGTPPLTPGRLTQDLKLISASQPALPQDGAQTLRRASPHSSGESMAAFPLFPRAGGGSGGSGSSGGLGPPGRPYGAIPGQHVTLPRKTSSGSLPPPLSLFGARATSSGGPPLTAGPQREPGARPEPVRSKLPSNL
Nature of the series: Inhibition of HCN4 currents in Xenopus oocytes, two-electrode voltage clamp. As to conditions: holding −30 mV, hyperpolarized to −120 mV for 2 s, room temperature. Type of series: cell-based. (Two-electrode voltage clamp is typically applied to oocytes expressing channels or transporters.)

The target in the next series is T2, DrHCN4L (Danio rerio, UniProt A0A8N7TEJ3).
T2 sequence (A0A8N7TEJ3 1-1188): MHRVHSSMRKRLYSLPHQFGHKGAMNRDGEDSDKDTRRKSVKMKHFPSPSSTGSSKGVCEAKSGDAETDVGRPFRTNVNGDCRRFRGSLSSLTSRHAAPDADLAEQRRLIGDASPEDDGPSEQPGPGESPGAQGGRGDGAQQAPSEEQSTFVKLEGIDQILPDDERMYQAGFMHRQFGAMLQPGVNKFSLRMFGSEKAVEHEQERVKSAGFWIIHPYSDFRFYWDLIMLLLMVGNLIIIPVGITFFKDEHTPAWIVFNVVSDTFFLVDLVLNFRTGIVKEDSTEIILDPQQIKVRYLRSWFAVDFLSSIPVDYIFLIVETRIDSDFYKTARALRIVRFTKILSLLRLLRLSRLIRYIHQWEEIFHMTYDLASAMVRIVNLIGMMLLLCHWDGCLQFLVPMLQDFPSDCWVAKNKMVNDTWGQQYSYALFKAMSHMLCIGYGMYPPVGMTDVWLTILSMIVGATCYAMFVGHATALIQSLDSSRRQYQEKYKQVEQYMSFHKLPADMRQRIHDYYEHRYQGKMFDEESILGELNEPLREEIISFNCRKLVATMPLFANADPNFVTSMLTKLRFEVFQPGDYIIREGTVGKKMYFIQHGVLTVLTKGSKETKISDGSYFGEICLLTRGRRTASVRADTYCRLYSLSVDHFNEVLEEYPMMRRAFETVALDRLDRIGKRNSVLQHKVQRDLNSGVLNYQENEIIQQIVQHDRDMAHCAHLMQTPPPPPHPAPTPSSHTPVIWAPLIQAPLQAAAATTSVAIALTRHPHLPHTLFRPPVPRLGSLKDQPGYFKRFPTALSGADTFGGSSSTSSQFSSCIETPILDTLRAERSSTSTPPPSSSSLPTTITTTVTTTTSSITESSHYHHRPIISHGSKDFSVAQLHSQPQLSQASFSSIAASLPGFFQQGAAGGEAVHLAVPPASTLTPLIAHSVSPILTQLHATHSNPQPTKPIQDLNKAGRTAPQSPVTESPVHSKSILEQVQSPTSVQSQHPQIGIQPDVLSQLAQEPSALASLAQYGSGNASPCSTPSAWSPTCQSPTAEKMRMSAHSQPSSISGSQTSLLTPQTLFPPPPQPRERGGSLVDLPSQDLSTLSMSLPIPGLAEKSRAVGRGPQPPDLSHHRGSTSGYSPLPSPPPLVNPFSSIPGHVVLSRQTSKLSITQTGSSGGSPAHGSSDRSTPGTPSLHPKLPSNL
The series is described as above. Type of series: cell-based, zebrafish (Danio rerio). The note with it: holding −30 mV, hyperpolarized to −120 mV for 2 s, room temperature.

Series [1] has as its system developing zebrafish embryos. Put plainly: HCN inhibitors in egg water: heart rate of developing zebrafish embryos. As to conditions: for Effect on heart rate, concentration dependence: 10 μM, 100 μM, 24 h and 48 h; for Effect on heart rate, concentration dependence / Heart rate recovery after washout: 1 mM; for Heart rate recovery after washout: 6 h after washout; for Pericardial edema in inhibitor-treated zebrafish: zebrafish embryos treated with inhibitor.

Setting [2] is: DrHCN4L in Xenopus oocytes, read-out: IC50.
The mark [3] stands for this setting: 0 h (24 hpf), before application of inhibitor, 1 mM group.
The mark [4] stands for this setting: 24 h after application, 1 mM in egg water.
The mark [5] stands for this setting: 48 h after application, 1 mM in egg water.
The mark [6] stands for this setting: Washout, 6 h in inhibitor-free water after 48 h, 1 mM group.
The mark [7] stands for this setting: 0 h (24 hpf), before application of inhibitor, 10 μM group.
[8] abbreviates: 0 h (24 hpf), before application of inhibitor, 100 μM group.
Setting [9] is: 24 h after application, 10 μM in egg water.
Setting [10] is: 24 h after application, 100 μM in egg water.
Where [11] appears, read: 48 h after application, 10 μM in egg water.
Setting [12] is: 48 h after application, 100 μM in egg water.
Setting [13] is: Washout, 6 h in inhibitor-free water after 48 h, 10 μM group.
[14] abbreviates: Washout, 6 h in inhibitor-free water after 48 h, 100 μM group.

For `[Cl-].[Cs+]` [Cesium ion, Cesium chloride], the IC50 against HsHCN4 stood at 68.8 ± 14 µM; against HsHCN4 (listed as Cs^+), 69 ± 14 µM; on DrHCN4L (DrHCN4L in Xenopus oocytes, listed as Cs^+, read-out: IC50), 48 ± 7 µM; on DrHCN4L (setting [2]), 48.3 ± 6.9 µM. Besides, the Heart rate in series [1] (setting [3]) is recorded as 89 ± 1 bpm; in series [1] (setting [4]), 131 ± 2 bpm; in series [1] (setting [5]) it was 133 ± 2 bpm; in series [1] (setting [6]) it was 139 ± 3 bpm.

In the case of `COc1cc2c(cc1OC)CC(=O)N(CCCN(C)C[C@H]1Cc3cc(OC)c(OC)cc31)CC2` [Ivabradine, ivabradine hydrochloride], the IC50 on HsHCN4 was 38 µM and 37.6 µM; on DrHCN4L (IC50, DrHCN4L in Xenopus oocytes), 10 µM and 10.4 µM. In addition, the Heart rate amounted to 81 ± 3 bpm in series [1] (setting [7]); 81 ± 2 bpm in series [1] (setting [8]); 85 ± 2 bpm in series [1] (setting [3]); 134 ± 4 bpm in series [1] (setting [9]); 124 ± 5 bpm in series [1] (setting [10]); 98 ± 2 bpm in series [1] (setting [4]). In addition, the Heart rate in series [1] (setting [11]) was found to be 133 ± 2 bpm; in series [1] (setting [12]), 101 ± 2 bpm; in series [1] (setting [5]), 72 ± 2 bpm; in series [1] (setting [13]), 149 ± 3 bpm; in series [1] (setting [14]) it was 133 ± 3 bpm; in series [1] (setting [6]), 115 ± 3 bpm. Further, the “Effect on heart rate, concentration dependence” value in series [1] is “significantly suppressed heart rate at all concentrations and time points”. In series [1], the “Heart rate recovery after washout” value is recorded as “recovered”. For the same molecule, the “Pericardial edema in inhibitor-treated zebrafish” value in series [1] was “no pericardial edema was observed”.

Turning to `CCN(c1ccccc1)c1cc(=NC)n(C)c(C)n1.Cl` [ZD7288], the 50% inhibitory concentration (IC50) against HsHCN4 was 167 ± 56 µM; on DrHCN4L (setting [2]), 596 ± 383 µM. Besides, the Heart rate was 81 ± 4 bpm in series [1] (setting [7]); 80 ± 3 bpm in series [1] (setting [8]); 84 ± 3 bpm in series [1] (setting [3]); 150 ± 3 bpm in series [1] (setting [9]); 129 ± 1 bpm in series [1] (setting [10]); 113 ± 3 bpm in series [1] (setting [4]). Further, the Heart rate in series [1] (setting [11]) worked out at 142 ± 2 bpm; in series [1] (setting [12]), 97 ± 4 bpm; in series [1] (setting [5]) it was 94 ± 2 bpm; in series [1] (setting [13]), 160 ± 3 bpm; in series [1] (setting [14]), 140 ± 4 bpm; in series [1] (setting [6]) it was 115 ± 2 bpm. Also, the “Effect on heart rate, concentration dependence” value in series [1] was “significantly lowered heart rate, except for a concentration of 10 μM at 24 h”. Moreover, the “Heart rate recovery after washout” value in series [1] is “recovered”. Further, in series [1], the “Pericardial edema in inhibitor-treated zebrafish” value was “no pericardial edema was observed”.

In general, IC50 refers to the midpoint of a concentration-inhibition curve.
